Values joined by “and” are separate entries in the source; they are usually repeats but may differ in a detail not shown here. Equal values may be shown once. “Also recorded” adds a separate entry of the source. Read-outs that look alike come from different tables or passages of the source.
Experiments:
[1] = in vitro; conditions: African green monkey
[2] = system: West Nile virus (WNV); experiment: microbe, parasite or virus in culture; conditions: Vero, 24 h, read-out: EC50 WNV
[3] = system: West Nile virus (WNV); conditions: Vero cells; for WNV infection: Fig 7
[4] = system: Usutu virus (USUV); conditions: Vero cells
[5] = system: coxsackievirus B5 (CVB5); experiment: microbe, parasite or virus in culture; format: cell-based, CVB5 Faulkner; conditions: for EC50: Enterovirus B, Vero, 24 h; for Antiviral efficacy against CVB5: Vero cells
[6] = in vitro; conditions: human
[7] = system: vesicular stomatitis virus (VSV); experiment: microbe, parasite or virus in culture; conditions: Vero, 24 h, read-out: EC50 VSV
[8] = system: West Nile virus (WNV); experiment: Specific infectivity of WNV progeny released from treated Vero cells; format: cell-based; conditions: vs vehicle
[9] = system: dengue virus (DENV-2); experiment: microbe, parasite or virus in culture; conditions: DENV2, Vero, 48 h, read-out: EC50 DENV-2
[10] = target: T1, ceramide desaturase (Des1) (Homo sapiens, UniProt O15121)
T1 sequence (O15121 1-323): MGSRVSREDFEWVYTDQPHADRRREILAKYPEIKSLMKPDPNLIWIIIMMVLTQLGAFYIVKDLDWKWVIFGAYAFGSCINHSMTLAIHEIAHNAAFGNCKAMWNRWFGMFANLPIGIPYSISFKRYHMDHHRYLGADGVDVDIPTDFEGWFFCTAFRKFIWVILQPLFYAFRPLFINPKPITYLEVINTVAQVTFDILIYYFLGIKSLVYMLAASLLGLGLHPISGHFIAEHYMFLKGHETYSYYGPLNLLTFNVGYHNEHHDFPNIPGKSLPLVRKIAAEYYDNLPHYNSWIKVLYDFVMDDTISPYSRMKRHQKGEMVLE

[11] = system: Zika virus (ZIKV); experiment: microbe, parasite or virus in culture; conditions: Vero, 24 h, read-out: EC50 ZIKV
[12] = system: Zika virus (ZIKV); conditions: Vero cells
[13] = system: West Nile virus (WNV); conditions: SH-SY5Y cells
[14] = system: vesicular stomatitis virus (VSV)
[15] = system: dengue virus (DENV-2); conditions: Vero cells
[16] = system: West Nile virus (WNV); experiment: microbe, parasite or virus in culture; conditions: SH-SY5Y, 24 h, read-out: EC50 WNV
[17] = system: WNV RVPs; experiment: Entry of WNV reporter virus particles (RVPs) into Vero cells, flow cytometry; format: cell-based, West Nile virus; conditions: Vero pretreated 24 h, read 48 h p.i.
[18] = system: Usutu virus (USUV); experiment: microbe, parasite or virus in culture; conditions: Vero, 24 h, read-out: EC50 USUV
[19] = system: Vero cells; conditions: low density, 24 h
[20] = system: Vero cells; experiment: Lipidomics of treated Vero cells by mass spectrometry; format: cell-based; conditions: 10 μM, 24 h; for Level of dihydrosphingomyelins (dhSMs): relative to control; for dhSM/SM ratio: vs vehicle, almost all dhSMs analyzed
[21] = system: Vero cells; conditions: for CC50: read-out: CC50 in uninfected cells, 48-h treatment, Vero cells, ATP, 48 h

Compound: CCCCCCCCOC(=O)c1cc(O)c(O)c(O)c1 [AL-071]
- CC50 [1]: 9.2 µM
- EC50 [2]: 1.4 µM
- SI (CC50/EC50) WNV [3]: 6.6

Compound: O=C(O)c1cc(O)c(O)c(O)c1 [Gallic acid, 3,4,5-trihydroxybenzoic acid, reference compound]
- CC50 [1]: > 100 µM
- EC50 [2]: ~100 µM
- WNV yield ([3]; Fig 1B): slight reduction in the WNV yield

Compound: O=C(NCCCCCCCCCCCCNC(=O)c1ccc(O)c(O)c1O)c1ccc(O)c(O)c1O [AL-274]
- CC50 [1]: > 100 µM
- SI (CC50/EC50) USUV [4]: >76.9
- Mean virus yield CVB5 [5]: 9.25E+07 PFU/mL and 7.64E+07 PFU/mL and 8.20E+07 PFU/mL and 8.13E+07 PFU/mL and 8.84E+07 PFU/mL and 6.70E+07 PFU/mL and 7.30E+07 PFU/mL and 7.92E+07 PFU/mL
- EC50 [5]: > 100 µM
- Antiviral efficacy against CVB5 [5]: undetectable; also recorded: no antiviral activity was observed
- CC50 [6]: 38.9 µM
- EC50 [7]: 43 µM
- Specific infectivity of released WNV particles [8]: significant reduction in their infectivity
- EC50 [9]: 9.2 µM
- IC50 [10]: 7.8 µM
- EC50 [11]: 2.1 µM
- SI (CC50/EC50) ZIKV [12]: >47.6
- SI (CC50/EC50) WNV [13]: 20.5
- SI (CC50/EC50) VSV [14]: >2.3
- EC50 [2]: 0.24 µM
- SI (CC50/EC50) DENV-2 [15]: >10.8
- EC50 [16]: 1.9 µM
- Number of cells infected with RVPs [17]: significantly reduced the number of infected cells
- EC50 [18]: 1.3 µM
- Effect on proliferation of Vero cells [19]: only cytostatic effects on Vero cells at high concentrations
- Level of dihydrosphingomyelins (dhSMs) [20]: significant increase
- dhSM/SM ratio [20]: significantly increased
- CC50 [21]: > 100 µM
- SI (CC50/EC50) WNV [3]: >416

Compound: O=C(NCCCCCCCCCCCCNC(=O)c1cc(O)c(O)c(O)c1)c1cc(O)c(O)c(O)c1 [AL-088, N,N′-(dodecane-1,12-diyl)bis(3,4,5-trihydroxybenzamide)]
- CC50 [1]: > 100 µM
- SI (CC50/EC50) USUV [4]: >125
- Mean virus yield CVB5 [5]: 8.58E+07 PFU/mL and 7.12E+07 PFU/mL and 6.85E+07 PFU/mL and 8.01E+07 PFU/mL and 6.45E+07 PFU/mL and 7.26E+07 PFU/mL and 7.43E+07 PFU/mL and 8.33E+07 PFU/mL
- EC50 [5]: > 100 µM
- Antiviral efficacy against CVB5 [5]: undetectable; also recorded: no antiviral activity was observed
- CC50 [6]: 87.6 µM
- EC50 [7]: 25.3 µM
- Specific infectivity of released WNV particles [8]: significant reduction in their infectivity
- EC50 [9]: 7.2 µM
- IC50 [10]: 1 µM
- EC50 [11]: 6.7 µM
- SI (CC50/EC50) ZIKV [12]: >14.9
- SI (CC50/EC50) WNV [13]: 39.8
- SI (CC50/EC50) VSV [14]: >4.0
- EC50 [2]: 2.2 µM
- SI (CC50/EC50) DENV-2 [15]: >13.9
- EC50 [16]: 2.2 µM
- Number of cells infected with RVPs [17]: significantly reduced the number of infected cells
- EC50 [18]: 0.8 µM
- Effect on proliferation of Vero cells [19]: only cytostatic effects on Vero cells at high concentrations
- Level of dihydroceramides (dhCers) [20]: Significantly elevated levels
- Level of sphingomyelins (SMs) [20]: slight reductions
- Level of dihydrosphingomyelins (dhSMs) [20]: significant increase
- dhSM/SM ratio [20]: significantly increased
- CC50 [21]: > 100 µM
- SI (CC50/EC50) WNV [3]: >45.0

Compound: O=C(OCCCCCCCCOC(=O)c1cc(O)c(O)c(O)c1)c1cc(O)c(O)c(O)c1 [AL-072]
- CC50 [1]: 23.2 µM
- EC50 [2]: 3.9 µM
- SI (CC50/EC50) WNV [3]: 5.9

Compound: O=C(OCCCCCCCCCCCCOC(=O)c1cc(O)c(O)c(O)c1)c1cc(O)c(O)c(O)c1 [AL-085]
- CC50 [1]: 5 µM
- EC50 [2]: 0.2 µM
- SI (CC50/EC50) WNV [3]: 25.0

Compound: CCCCCCCCCCCCCC1=C([C@H](O)[C@@H](CO)NC(=O)CCCCCCC)C1 [GT-11, N-[(1R,2S)-2-hydroxy-1-hydroxymethyl-2-(2-tridecyl-1-cyclopropenyl)ethyl]octanamide, reference compound]
- WNV infection [3]: inhibited WNV infection in a dose-dependent manner

Compound: CCCCCCCCCCCCCCC[C@@H](O)[C@H](COP(=O)([O-])OCC[N+](C)(C)C)NC(=O)CCCCCCCCCCC [dhSM, N-Lauroyl-D-erythro-sphinganylphosphorylcholine, reference compound]
- Cell viability estimated by ATP measurements [21]: without reducing cell viability
- WNV infection [3]: significantly reduced WNV infection in a dose-dependent manner
